According to patent US8466127B2, “Pegylated and fatty acid grafted chitosan oligosaccharide, synthesis method and application for drug delivery system” (Zhejiang University, priority 2008, dated 2013):
≈ marks a conversion by molar mass, not a printed value. Where two headings read alike, the source gives them in different places. One block for each molecule: values may come before it.

Experiments:
[1] = test system: hepatoma cell HepG2; test: MTT assay, mitomycin C preparations; assay type: cell-based; settings: HepG2, 48 h, mitomycin C solution or mitomycin C-loaded micelle of the named carrier
Method: Cell survival rate was determined by MTT assay. […] After incubation for 48 h, 60 μL of MTT solution was added to each well followed by incubation for 4 h. After that, the supernatant was discarded, and the cells were washed twice with PBS solution, prior to adding 400 μL DMSO to each well to terminate the reaction. After the culture plates were given a horizontal vibration for 10 min, the absorbance at the wavelength of 570 nm was measured in ELSA meter, and the cell survival rate was calculated according to the following formula: Cell survival rate(%)=A570(sample)/A570(control)×100% Wherein, A570 (sample) is the absorbance of cells adding with free drug or drug-loaded micelle, A570 (control) is the absorbance of control cells.

[2] = test system: uterine cervix cancer cell Hela; test: MTT assay, adriamycin preparation; assay type: cell-based; settings: Homo sapiens, 48 h
Method: Subsequently, the solution was transferred into a volumetric flask to set the total volume to 50 mL with distilled water, and then 1 mg/mL micelle solution was obtained. […] After stirred at room temperature for 3 h, the solution was dialyzed for 24 h with distilled water in dialysis bag with the molecular weight of 3,500. Then the dialysis concentrate solution was centrifuged at 5000 rpm for 5 min to remove the dialyzed hydrophobic anticancer drugs.
Subsequently, the evaluation of antitumor efficacy was conducted. Specifically, the uterine cervix cancer cell Hela used as the model was cultured in 96-well culture plate. 100 μL cell culture solution containing 5×10^3 Hela cells was added to each well and cultured for 24 h in 37° C., 5% CO2 incubator. […] A repeated well of each above group was set. The cells were cultured in normal DMEM medium for 48. After 20 μL of 5 mg/mL methylthiazoletetrazolium (MTT) solution was added to each well, the cells was re-cultured in 37° C., 5% CO2 incubator for 4 h, and then the supernatant was discarded. By adding 150 μL dimethyl sulfoxide to each well, a multi-functional microplate reader was used to measure the absorbance, and then the cell inhibition ratio was calculated according to the following formula: Cell inhibition ratio(%)=(absorbance of control group−absorbance of experimental group)/absorbance of control group×100%

[3] = test system: breast carcinoma cell (MCF-7); test: MTT assay, adriamycin preparation, sensitive cells; assay type: cell-based; settings: Homo sapiens, MCF7, 48 h
Method: (§1) Specifically, the breast carcinoma cell (MCF-7) and its drug-resistant cell (MCF-7-adr) used as the model cells were cultured in 96-well culture plate. 100 μL culture solution containing 5×10^3 MCF-7 or MCF-7-adr cells was added to each well and cultured for 24 h in 37° C., 5% CO2 incubator. […] A repeated well of each above group was set. The cells were cultured in normal DMEM medium for 48. After 20 μL of 5 mg/mL methylthiazoletetrazolium (MTT) solution was added to each well, the cells was re-cultured in 37° C., 5% CO2 incubator for 4 h, and then the supernatant was discarded. By adding 150 μL dimethyl sulfoxide to each well, a multi-functional microplate reader was used to measure the absorbance, and then the cell inhibition ratio was calculated according to the following formula: Cell inhibition ratio %=(absorbance of control group−absorbance of experimental group)/absorbance of control group×100%

[4] = test system: drug-resistant cell (MCF-7-adr); test: MTT assay, adriamycin preparation, drug-resistant cells; assay type: cell-based; settings: Homo sapiens, NCI/ADR-RES, 48 h
Method: as §1

[5] = test system: QGY tumor; test: In vivo gene therapy, tumor inhibition; settings: Nude mouse with QGY tumor, 2 mg/kg once, successive administration for 7 days
Method: PEDF was taken as the theoretical gene, and the drug-loaded graft micelle was prepared.

[6] = test system: human lung cancer cell A549; test: MTT assay, paclitaxel and hydroxycamptothecin preparations; assay type: cell-based; settings: A549, 48 h
Method: Specifically, the human lung cancer cell A549 used as the model was cultured in 96-well culture plate. 100 μL cell culture solution containing 5×10^3 A549 cells was added to each well and cultured for 24 h in 37° C., 5% CO2 incubator. […] A repeated well of each above group was set. The cells were cultured in normal DMEM medium for 48. After 20 μL of 5 mg/mL methylthiazoletetrazolium (MTT) solution was added to each well, the cells was re-cultured in 37° C., 5% CO2 incubator for 4 h, and then the supernatant was discarded. By adding 150 μL dimethyl sulfoxide to each well, a multi-functional microplate reader was used to measure the absorbance, and then the cell inhibition ratio was calculated according to the following formula: Cell inhibition ratio %=(absorbance of control group−absorbance of experimental group)/absorbance of control group×100%

[7] = test system: ovarian cancer cell SKOV-3; test: MTT assay, paclitaxel preparation, sensitive cells; assay type: cell-based; settings: Homo sapiens, SK-OV-3, 48 h
Method: as §1, with “ovarian cancer” for “breast carcinoma”, “SKOV-3” for “(MCF-7)”, “SKOV-3/ST30” for “(MCF-7-adr)”, “SKOV-3” for “MCF-7”, “SKOV-3/ST30” for “MCF-7-adr”

[8] = test system: drug-resistant cell SKOV-3/ST30; test: MTT assay, paclitaxel preparation, drug-resistant cells; assay type: cell-based; settings: Homo sapiens, SK-OV-3, 48 h
Method: as §1, with “ovarian cancer” for “breast carcinoma”, “SKOV-3” for “(MCF-7)”, “SKOV-3/ST30” for “(MCF-7-adr)”, “SKOV-3” for “MCF-7”, “SKOV-3/ST30” for “MCF-7-adr”

SMILES: CO[C@@]12[C@H](COC(N)=O)C3=C(C(=O)C(C)=C(N)C3=O)N1C[C@@H]1N[C@@H]12 [Control example, mitomycin C]
IC50 [1]: 1.97 µg/mL (≈ 5.89 µM)

IC50 [2]: 1.7 µg/mL (≈ 3.13 µM)
IC50 [3]: 0.48 µg/mL (≈ 0.883 µM)
IC50 [4]: 24.8 µg/mL (≈ 45.6 µM)
SMILES: COc1cccc2c1C(=O)c1c(O)c3c(c(O)c1C2=O)C[C@@](O)(C(=O)CO)C[C@@H]3O[C@H]1C[C@H](N)[C@H](O)[C@H](C)O1 [adriamycin solution, adriamycin]
tumor inhibition ratio (positive control) [5]: 78.85%

SMILES: CC[C@@]1(O)C(=O)OCc2c1cc1n(c2=O)Cc2cc3cc(O)ccc3nc2-1 [hydeoxycamptothecin injection, hydroxycamptothecin]
IC50 [6]: 8.6 µg/mL (≈ 23.6 µM)

IC50 ([6]; MTT, read-out: IC50): 3.2 µg/mL (≈ 3.75 µM)
IC50 [7]: 0.45 ± 0.05 µg/mL (≈ 0.527 µM)
IC50 [8]: 10.2 ± 0.23 µg/mL (≈ 12 µM)
SMILES: CC(=O)O[C@H]1C(=O)[C@@]2(C)[C@H]([C@H](OC(=O)c3ccccc3)[C@]3(O)C[C@H](OC(=O)[C@H](O)[C@@H](NC(=O)c4ccccc4)c4ccccc4)C(C)=C1C3(C)C)[C@]1(OC(C)=O)CO[C@@H]1C[C@@H]2O [taxol solution, paclitaxel]
